Source: patent publication US20240041876A1, “PHARMACEUTICAL COMPOSITION FOR PREVENTION OR TREATMENT OF DEGENERATIVE BRAIN DISEASES COMPRISING ABEMACICLIB AS ACTIVE INGREDIENT” (priority 2020, published 2024)

How the values were obtained:
[1] = test system: BV2 microglia; test: MTT assay, cytotoxicity to BV2 microglia; format: cell-based; conditions: 0.1, 1, 5, 10, 25, or 50 μM; 24 hours in the absence of FBS
Experimental: Cell viability was measured using the 3-(4,5-dimethylthiazol-2-yl)-2,5-diphenyltetrazolium bromide (MTT) assay. BV2 microglia were seeded in a 96-well plate and treated with various concentrations of abemaciclib mesylate (0.1, 1, 5, 10, 25, 50 μM) for 24 hours in the absence of FBS. Then, the cells were treated with 0.5 mg/ml MTT and incubated at 37° C. for 3 hours in a 5% CO2 incubator, and absorbance was measured at 580 nm.
To determine whether or not abemaciclib is cytotoxic to BV2 microglia, BV2 microglia were treated with abemaciclib at different concentrations (0.1, 1, 5, 10, 25, or 50 μM) and then MTT assay was performed.

[2] = test system: 5×FAD mice; test: Abemaciclib versus donepezil: cognitive function in 5×FAD mice (Y maze, NOR); format: in vivo, mouse; conditions: abemaciclib 30 mg/kg or donepezil 1 mg/kg intraperitoneal daily for 14 days
Experimental: Then, percent alteration=(number of alterations/number of triads)×100 was obtained and used as a parameter of short-term memory. • Alteration: 1 point awarded when the mouse enters three different arms in turn • Triads: Total visits—2
The animal was allowed to start from the center of the box, and the time at which the animal was interested in the object was recorded for 5 minutes. After 24 hours, one of the two objects was replaced with fresh one, the times at which the mouse approached the old object and the fresh object were measured, and the preference for the new object was analyzed and used as a long-term memory analysis index.

[3] = test system: 5×FAD mice; test: Abemaciclib versus donepezil: astrocyte activity in 5×FAD mice (anti-GFAP, anti-6E10); format: in vivo, mouse; conditions: abemaciclib 30 mg/kg or donepezil 1 mg/kg intraperitoneal daily for 14 days
[4] = test system: 5×FAD mice; test: Abemaciclib versus donepezil: tau kinases phospho-GSK-3β and DYRK1A in 5×FAD mice; format: in vivo, mouse; conditions: abemaciclib 30 mg/kg or donepezil 1 mg/kg intraperitoneal daily for 14 days
Experimental: F1-generation male 5×FAD mice (stock #34848-JAX, B6Cg-Tg APPSwF1Lon, PSEN1*M146L*L286V6799Vas/Mmjax) purchased from Jackson Laboratory were used. 5×FAD mice (3 months old) were bred in a sterile facility under 12-hour light/dark controlled conditions at an ambient temperature of 22° C. After daily administration of abemaciclib (30 mg/kg, intraperitoneal administration) or vehicle (10% DMSO) to 5×FAD mice for 14 days, Y maze test on day 15 and NOR test on day 16 to 17 were performed, followed by fluorescent tissue staining or Golgi staining.
Then, each brain section was subjected to immunohistochemical staining. Brain sections were rinsed in PBS and permeabilized for 1 hour at room temperature using PBS containing 0.2% Triton X-100 and 1% BSA. Then, the primary antibody was diluted in PBST (0.2% Triton X-100 in PBS) and reacted at 4° C. for 24 hours, and the next day, the tissue was washed three times with PBST, and then reacted with a secondary antibody bound with a fluorescent signal at room temperature for 2 hours. Then, the brain sections were washed three times with PBS, placed on slides, and observed under a fluorescence microscope.

| Structure (SMILES) | cytotoxicity to BV2 microglia (MTT assay) [1] | short-term memory (Y maze) ([2]; day 15) | long-term memory (NOR test) ([2]; day 16-17) | number of astrocytes directly interacting with amyloid plaques [3] | expression of DYRK1A, a tau kinase, in the cortex [4] | expression of DYRK1A, a tau kinase, in the hippocampus [4] | hippocampal phospho-GSK-3β levels [4] |
| --- | --- | --- | --- | --- | --- | --- | --- |
| CCN1CCN(Cc2ccc(Nc3ncc(F)c(-c4cc(F)c5nc(C)n(C(C)C)c5c4)n3)nc2)CC1 [abemaciclib] | did not induce cytotoxicity |  |  |  |  |  |  |
| COc1cc2c(cc1OC)C(=O)C(CC1CCN(Cc3ccccc3)CC1)C2 (stereo not shown) [donepezil] |  | improved | improved | reduced | reduced | reduced | reduced |
